What was measured:
[1] = test system: Dbp gene expression in whole blood; test: Dbp mRNA in whole blood of db/db mice; type: in vivo, mouse; settings: 100 mg/kg PO once daily for three days at ZT0, sampled ZT7.5
Experimental: For whole blood RNA studies, male db/db mice (9 weeks of age, The Jackson Laboratory, Bar Harbor, Me.) were used for the experiment with n=8 mice for each experimental group. […] On the final day at ZT7.5 (2:30 pm), animals were euthanized using CO2 asphyxiation, and the blood collected from the heart via cardiac puncture. The blood was placed in RNALater solution to 1.5 ml total volume. Total RNA was prepared using an Ambion Mouse RiboPure Blood RNA Isolation Kit AM1951 as follows. Samples were centrifuged for 3 minutes, discarding the supernatant. Two ml of lysis solution was added and vortexed, transferred to a 15 ml tube followed by the addition of […]. Lysis buffer was added to a total volume of 3.8 ml and vortexed. The sample mixture was extracted with 1.5 ml Acid Phenol: Chloroform and the aqueous phase was recovered. After adding 0.5 volumes of 100% ethanol and vortexing, the samples were passed through a filter column provided in the kit and washed with 750 microliters of wash buffer 1. The filter was washed with 2 passes of 750 microliters wash buffer 2/3 and dried. […]
For PCR analysis, the kit utilized was TaqMan® Fast Universal Master Mix (2×), No AmpErase® UNG. […] At least one housekeeping mRNA Expression Assay (e.g. GAPDH; Mm03302249_g1 or Hs02758991_g1) was included in each set of RNA samples to be assessed. […]

[2] = Pharmacokinetic analysis in SD rats; type: in vivo; settings: plasma; rat; 50 mg/kg P.O.
Experimental: Male SD rats (weighing 250-300 g, Charles River Laboratories) were used for the experiment with n=4 rats for each experimental group. […] Blood was collected at the following time points after administration: 15, 30, 60, 90 minutes, 3, 6, 12 and 24 hours. A pre-dose sample was also collected. Animals were cannulated by technical staff at Charles River, prior to delivery at Reset. Whole blood (0.3 ml) was collected from a cannula in the right common jugular vein at each time-point. The whole blood was transferred to an EDTA tube, and then centrifuged at 5400 rpm for 5 minutes at 4° C. The resultant plasma was frozen using dry ice and then stored at −80° C. until ready for assay. 0.9% Sodium Chloride (0.3 ml) was administered for fluid replenishment after each blood draw. 0.1 ml of Sodium Heparin (500 IU/ml) was used as a lock solution after the 12 hr time-point. Samples were assayed as described above.

- % AUC extrapolated [2]: 3.3%
Structure (SMILES): O=C1NCCN1CC(O)Cn1c2ccc(F)cc2c2cc(F)ccc21 (centres unmarked) [Compound 72, 1-(3-(3,6-difluoro-9H-carbazol-9-yl)-2-hydroxypropyl)imidazolidin-2-one]
- Dbp gene expression in whole blood [1]: statistically significant suppression

— patent publication US10759777B2, “Carbazole-containing amides, carbamates, and ureas as cryptochrome modulators” (Synchronicity Pharma, Inc., priority 2014, dated 2020)
